Laboratory results: patent publication US8101768B2, “Cyclic amine compound and pest control agent” (Nippon Soda Co., Ltd., priority 2004, dated 2012)

Legend:
[1] = test system: army worms; experiment: Effect on Army Worm (artificial feed test); format: in vivo; conditions: 10 μg of compound on 0.2 ml artificial feed, second instar, 25° C., 5 days
Procedure: Test feeds were prepared by filling plastic test tubes (capacity of 1.4 ml) with 0.2 ml of a commercial artificial feed (Insecta LFS, manufactured by Nosan Corporation). Each of 1% chemical compound solutions was prepared by using DMSO (containing 0.5% tween 20), which was then dropped into the surface of the feed in amount of 10 μg of the respective chemical compounds. 2 army worms, each of which was in the second instar, were inoculated into each of the test tubes, which were then sealed by their plastic caps. After they were left at 25° C. for 5 days, the rate of killed army worms and their feed consumptions were investigated. The test was repeated twice. […] 1-8, 1-9, 1-13, 1-15, 1-17, 1-22, 1-23, 1-27, 1-39, 1-45, 1-46, 1-59, 1-69, 1-72, 1-74, 1-75, 1-79, 1-80, 1-83, 1-95, 1-97, 1-981-100, 1-105, 1-108, 1-114, 1-133, 1-140, 1-147, 1-153, 1-165, 1-166, 1-181, 1-182, 1-183, 1-184, 1-187, 1-189, 1-190,

[2] = test system: organophosphorous agent resistant two-spotted spider mites; experiment: Effect on Two-spotted Spider Mite (spray on kidney bean leaves); format: in vivo; conditions: 125 ppm, water dispersible powder of Formulation Example 1 sprayed, 17 female adults, 25° C., 65% humidity, 3 days
In short: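 Kidney bean first leaves bearing 17 adult female organophosphate-resistant mites were sprayed with a water-dispersible powder formulation at 125 ppm. Held 3 days at 25 °C, 65% humidity, then adult mortality scored; run in duplicate.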

[3] = test system: acaricide resistant citrus red mites; experiment: Effect on Citrus Red Mite (spray on mandarin orange leaves); format: in vivo; conditions: 31 ppm, emulsifiable concentrate of Formulation Example 2 sprayed, 10 female adults, 25° C., 65% humidity
In short: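 Acaricide-resistant female adult citrus red mites (10 per leaf) on mandarin orange leaves were sprayed with emulsifiable concentrate diluted to 31 ppm compound. Leaves were held 3 days at 25° C, 65% humidity, then adults were removed. Eggs laid during those 3 days were checked on day 11 for development to adults.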

Row | Compound | killed 100% of the army worms, or inhibited their feed consumptions, in comparison with a solvent control area, to 10% or less (effective) [1] | rate of killed adults [2] [%] | killed ... of the adults (eggs laid for 3 days investigated whether they could grow to adults on the eleventh day) [3] [%] | melting point [°C]
1 | CCCOc1cc(C(F)(F)F)ccc1O[C@H]1CCN(c2ccc(C(F)(F)F)cn2)C[C@H]1C (relative stereo) [1-97, cis-3-methyl-4-[2-propoxy-4-(triphloromethyl)phenoxy]-1-[5-(trifluoromethyl)-2-pyridyl]piperidine] | effective | 100 | 100 | 
2 | CCCOc1cc(C(F)(F)F)ccc1OC1CCN(c2ccc(C(F)(F)F)cn2)CC1CC (stereo not shown) [1-187] | effective | 100 | 100 | 
3 | COCOCc1cc(C(F)(F)F)ccc1OC1CCN(c2ccc(C(F)(F)F)cn2)CC1C (mixture of isomers) [1-183] | effective | 100 | 100 | 
4 | Cc1noc(-c2cc(C(F)(F)F)ccc2OC2CCN(c3ccc(C(F)(F)F)cn3)CC2)n1 [1-190] | effective | 100 | 100 | 
5 | FC(F)(F)c1ccc(N2CCC(Oc3ccc(C(F)(F)F)cc3C3OCCO3)CC2)nc1 [1-181] | effective | 100 | 100 | 
6 | FC(F)(F)c1ccc(N2CCC(Oc3ccc(C(F)(F)F)cc3Cl)CC2)nc1 [1-13] | effective | 100 | 100 | 
7 | O=S(=O)(Oc1ccc(OC2CCN(c3ccc(C(F)(F)F)cn3)CC2)cc1)C(F)(F)F [1-153] | effective | 100 | 100 | 
8 | COCOCc1cc(C(F)(F)F)ccc1OC1CCN(c2ccc(C(F)(F)F)cn2)CC1 [1-69] | effective | 100 | 100 | 
9 | FC(F)(F)c1ccc(N2CCC(Oc3ccc(Cl)c(C(F)(F)F)c3)CC2)nc1 [1-15, 4-[4-chloro-3-(trifluoromethyl)phenoxy]-1-[5-(trifluoromethyl)-2-pyridyl]-piperidine] | effective | 100 | 100 | 
10 | CC(=O)Oc1cc(C(F)(F)F)ccc1OC1CCN(c2ccc(C(F)(F)F)cn2)CC1 [1-167, 4-[2-acetoxy-4-(trifluoromethyl)phenoxy]-1-[5-(trifluoromethyl)-2-pyridyl]piperidine] |  |  |  | 85 to 95
11 | FC(F)(F)c1ccc(N2CCC(Oc3ccc(C(F)(F)F)cc3OCC3CC3)CC2)nc1 [1-108] | effective | 100 | 100 | 
12 | FC(F)(F)c1ccc(OC2CCN(c3ccc(C(F)(F)F)cn3)CC2)cc1 [1-75] | effective | 100 | 100 | 
13 | FC(F)(F)c1ccc(N2CCC(Oc3ccc(C(F)(F)F)cc3I)CC2)nc1 [1-27] | effective | 100 | 100 | 
14 | COC(C)OCc1cc(C(F)(F)F)ccc1OC1CCN(c2ccc(C(F)(F)F)cn2)CC1 (stereo not shown) [1-72] | effective | 100 | 100 | 
15 | Cc1cc(C(F)(F)F)ccc1OC1CCN(c2ccc(C(F)(F)F)cn2)CC1 [1-45] | effective | 100 | 100 | 
16 | FC(F)(F)c1ccc(N2CCC(Oc3ccc(C(F)(F)F)cc3C(F)(F)F)CC2)nc1 [1-80] | effective | 100 | 100 | 
17 | COCOc1cc(C(F)(F)F)ccc1OC1CCN(c2ccc(C(F)(F)F)cn2)CC1 [1-105, 4-[2-methoxymethoxy-4-(trifluoromethyl)-phenoxy]-1-[5-(trifluoromethyl)-2-pyridyl]piperidine] | effective | 100 | 100 | 
18 | CCCc1cc(C(F)(F)F)ccc1OC1CCN(c2ccc(C(F)(F)F)cn2)CC1 [1-59] | effective | 100 | 100 | 
